Assay results: patent US20220265667A1 (priority 2019, published 2022)
Where two headings read alike, the source gives them in different places.

Legend:
[1] = test system: murine bone marrow-derived mast cells (BMMCs); assay: In vitro release of Interleukin-6 (IL-6) from IgE-preloaded murine bone marrow-derived mast cells (ELISA); format: cell-based, mice; conditions: Mus musculus, BMMC, 3 h; read-out: percentage of inhibition of IL-6 release
Protocol: According to the technique established by Razin et al. (Proc. Natl. Acad. Sci. USA 1981, 78:2559-2561), bone marrow cells (1×10^6/ml) from 6 to 8 week old mice (129/Sv×C57BL/6) were cultured (37° C. and 5% CO2) as single cell suspensions in RPMI 1640 medium (Sigma-Aldrich, Munich, Germany) supplemented with 15% fetal calf serum (FCS), 1% X63Ag8-653-conditioned medium (Karasuyama and Melchers, Eur. J. Immunol. 1988, 18:97-104), 2 mM L-glutamine, 10 μM β-mercaptoethanol, 50 units/ml penicillin, and […] streptomycin. At weekly intervals, the non-adherent cells were reseeded at 5×10^5 cells/ml in fresh medium. After 4-6 weeks in culture, greater than 99% of the cells were KIT- and […] as assessed by fluorescence-activated cell sorting (FACS) using phycoerythrin-labeled anti-KIT antibodies (Pharmingen, Mississauga, Canada) and fluorescein isothiocyanate (FITC)-labelled hamster anti-mouse FcεRIα antibodies (eBioscience, Frankfurt, Germany), respectively. The resulting cells are called bone marrow-derived mast cells (BMMCs).
For degranulation studies, BMMCs were preloaded with 0.15 μg/ml IgE anti-DNP (dinitrophenyl; Sigma Aldrich, Munich, Germany) overnight at 37° C. The cells were then washed and resuspended in Tyrode's buffer (130 mM NaCl, 5 mM KCl, 1.4 mM CaCl2, 1 mM MgCl2, 5.6 mM glucose, and 0.1% bovine serum albumin (BSA) in 10 mM Hepes, pH 7.4).
Subsequently, the cells were left unstimulated (unst) or stimulated with 20 ng/ml Ag (dissolved in medium) for 3 h. Subsequently, the cells were pelleted by centrifugation and the resulting cell pellet was discarded. For the determination of the amount of degranulated IL-6, the respective supernatant obtained by centrifugation was subjected to an IL-6 ELISA according to the manufacturer's instructions (BD, Heidelberg, Germany). Experiments were performed in triplicate.

[2] = test system: human nasal tissue mast cells activated with LPS; assay: Ex vivo LPS-induced tryptase release (degranulation) of human nasal tissue mast cells; format: cell-based; conditions: for Tryptase: with LPS; for inhibition at 3 µM / inhibition at 10 µM / inhibition at 30 µM / inhibition at 60 µM / IC50: Homo sapiens, Mast cell; for inhibition at 3 µM / inhibition at 10 µM / inhibition at 30 µM / inhibition at 60 µM: read-out: percentage inhibition of degranulation (tryptase); for IC50: read-out: IC50 ex vivo inhibition of tryptase release; for HillSlope / LogIC50: LPS
Description: Fresh human nasal mucosa was used (middle nasal turbinate), which was surgically removed as standard procedure during nose correction surgeries (septorhinoplasty with conchotomy). Only tissues from those patients who had not previously received medication in the form of cortisone preparations or antihistamines were used. The removed tissue was cleansed immediately after the surgical removal with Epilife Medium (Thermo Fisher Scientific, No. […]500), referred to as “medium” in terms of ex vivo experiments, a chemically defined, serum-free full medium for epithelial cells and keratinocytes. The tissue was then cut into 12 pieces of equal size, cleansed again in the medium, and the exact fresh weight of the cut tissue pieces was determined for later normalization and then stored overnight in cold medium. The weight of the tissue pieces varied between 10 and 20 mg.
After an one hour of pre-incubation with the respective compositions i), ii) or iii), 4 μg/ml lipopolysaccharide (LPS, Sigma-Aldrich GmbH, L4516) was added to each well—except for one well serving as the negative control—in order to induce tryptase degranulation. Then, 250 μl supernatant were taken from each well at the time points of 15 minutes, 60 minutes (one hour), 120 minutes (two hours), 240 minutes (four hours), 480 minutes (eight hours), and 1200 minutes (20 hours) after stimulation with LPS and the supernatants were directly frozen. Immediately after the removal of 250 μl supernatant, the volume in each well was increased to the original level and the original composition by adding 250 μl of the respective composition i), ii) and iii).
For the determination of the amount of degranulated tryptase, the frozen supernatants were thawed at 22° C. and then subjected to a tryptase ELISA Kit from Boster Biological Technology Co., Ltd (No. EZ0898, Assay Range: 156-10000 pg/ml, Sensitivity: <15 pg/ml) according to manufacturer's instructions, and the ELISA measurements were performed with the Multiskan Go instrument from Thermo Scientific and the SkanIt Re 4.1 software.
The statistical analysis was conducted in two steps. In a first step, the raw measurement values were normalized to 10 mg tissue. In a second step, a correction factor was introduced for all time points of supernatant removal to compensate for the 250 μl supernatant taken for analysis at each time and the subsequent re-addition of medium incl. factors. The statistical calculations were performed with Microsoft Excel 2010.
For the analysis, a non-linear regression (variable slope—4-parametric) was used. The program setting “Dose-Response-Inhibition” was applied for an automatic calculation, readout and display of the IC50 values.

[3] = test system: patient with therapy-resistant systemic mastocytosis; assay: Human in-vivo off-label clinical test, symptom intensity by visual analog score (VAS)
Protocol: The results of the clinical test were closely monitored, captured and documented together with patient. The patient is and diagnosed with systemic mastocytosis (WHO criteria, KIT816V positiv) with official diagnosis. […] The current daily treatment of the patient is: H1 antihistamine 3× daily, cromolyn 4×200 mg daily, PPI 110 mg daily, Vitamine C/Vitamine D upon need, Actonel, upon need decortin 40 to 60 mg.

CCNC1=Nc2ccc(Cl)cc2C(C)(c2ccccc2)O1 (racemic) [Etifoxine, 6-Chloro-2-N-ethyl-4-methyl-4-phenyl-4H-3,1-benzoxazine-2-amine]
inhibition at 3 µM [1]: 20%
inhibition at 10 µM [1]: 48%
inhibition at 30 µM [1]: 92%
Tryptase ([2]; 3 μM Etifoxine, 15 min): 1107.7 pg/ml/10 mg tissue
Tryptase ([2]; 3 μM Etifoxine, 60 min): 1822.9 pg/ml/10 mg tissue
Tryptase ([2]; 3 μM Etifoxine, 120 min): 2116.7 pg/ml/10 mg tissue
Tryptase ([2]; 3 μM Etifoxine, 240 min): 3032.7 pg/ml/10 mg tissue
Tryptase ([2]; 3 μM Etifoxine, 480 min): 3622.0 pg/ml/10 mg tissue
Tryptase ([2]; 3 μM Etifoxine, 1200 min): 5419.5 pg/ml/10 mg tissue
Tryptase ([2]; 10 μM Etifoxine, 15 min): 763.6 pg/ml/10 mg tissue
Tryptase ([2]; 10 μM Etifoxine, 60 min): 1252.6 pg/ml/10 mg tissue
Tryptase ([2]; 10 μM Etifoxine, 120 min): 2035.3 pg/ml/10 mg tissue
Tryptase ([2]; 10 μM Etifoxine, 240 min): 2901.8 pg/ml/10 mg tissue
Tryptase ([2]; 10 μM Etifoxine, 480 min): 3275.1 pg/ml/10 mg tissue
Tryptase ([2]; 10 μM Etifoxine, 1200 min): 4687.0 pg/ml/10 mg tissue
Tryptase ([2]; 30 μM Etifoxine, 15 min): 676.0 pg/ml/10 mg tissue
Tryptase ([2]; 30 μM Etifoxine, 60 min): 857.5 pg/ml/10 mg tissue
Tryptase ([2]; 30 μM Etifoxine, 120 min): 1619.4 pg/ml/10 mg tissue
Tryptase ([2]; 30 μM Etifoxine, 240 min): 2276.4 pg/ml/10 mg tissue
Tryptase ([2]; 30 μM Etifoxine, 480 min): 2678.2 pg/ml/10 mg tissue
Tryptase ([2]; 30 μM Etifoxine, 1200 min): 3675.9 pg/ml/10 mg tissue
Tryptase ([2]; 60 μM Etifoxine, 15 min): 881.1 pg/ml/10 mg tissue
Tryptase ([2]; 60 μM Etifoxine, 60 min): 1054.5 pg/ml/10 mg tissue
Tryptase ([2]; 60 μM Etifoxine, 120 min): 1592.2 pg/ml/10 mg tissue
Tryptase ([2]; 60 μM Etifoxine, 240 min): 2241.2 pg/ml/10 mg tissue
Tryptase ([2]; 60 μM Etifoxine, 480 min): 2720.1 pg/ml/10 mg tissue
Tryptase ([2]; 60 μM Etifoxine, 1200 min): 3472.1 pg/ml/10 mg tissue
inhibition at 3 µM ([2]; 2 h): 79%
inhibition at 10 µM ([2]; 2 h): 83%
inhibition at 30 µM ([2]; 2 h): 105%
inhibition at 60 µM ([2]; 2 h): 106%
inhibition at 3 µM ([2]; 4 h): 104%
inhibition at 10 µM ([2]; 4 h): 107%
inhibition at 30 µM ([2]; 4 h): 123%
inhibition at 60 µM ([2]; 4 h): 124%
IC50 ([2]; 2 hours (120 minutes) after LPS addition): 14.7 µM
IC50 ([2]; 4 hours (240 minutes) after LPS addition): 15.1 µM
HillSlope ([2]; Tryptase 2 h): −4.183
LogIC50 ([2]; Tryptase 2 h): 1.168
HillSlope ([2]; Tryptase 4 h): −4.101
LogIC50 ([2]; Tryptase 4 h): 1.179
inhibition of LPS-triggered tryptase degranulation achieved (complete) ([2]; summary statement, mast cells of human nasal pieces): 100%
total clinical symptom intensity score (VAS) ([3]; after 6 weeks treatment, VAS baseline value 8, scale 0-10): 4
side effects ([3]; during the 6 week oral treatment, one patient): No side effects occurred
reduction of total clinical symptom intensity score ([3]; one patient, oral 50 to 150 mg daily, over 6 weeks): 50%
